Experimental data taken from patent US20250145633A1, “SUBSTITUTED FURANOPYRIMIDINE COMPOUNDS AS PDE1 INHIBITORS” (Dart NeuroScience, LLC, priority 2017, published 2025).

Target: human PDE1B enzyme (Homo sapiens (Human), UniProt Q01064)
Experiment: IMAP TR-FRET PDE1B enzymatic assay
Assay type: biochemical
Settings: negative log of half-maximal molar inhibitory concentration, 200 nM FAM-cAMP, values given as bins; for IC50: read-out: PDE1b (pIC50) (converted)
How it was run: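 Full-length GST-tagged human PDE1B (250 pg/well) in IMAP BSA buffer with 10 U/ml calmodulin and 2.5 mM CaCl2; compound pre-incubated 5 min at room temperature, then 200 nM (final) FAM-cAMP for 30 min. IMAP binding reagent/Tb added, 1 h; TR-FRET 520/490 ratio read. IC50 from sigmoidal dose-response fit.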

| Structure (SMILES) | PDE1b (pIC50) | IC50 |
| --- | --- | --- |
| COc1ccc(CNC(=O)c2c(C)oc3ncnc(NC4(C)CC4)c23)cc1F [Example 483, N-[(3-Fluoro-4-methoxyphenyl)methyl]-6-methyl-4-[(1-methylcyclopropyl)amino]furo[2,3-d]pyrimidine-5-carboxamide] | >8 |  |
| COc1cc(CNC(=O)c2c(C)oc3ncnc(NC4(C)CC4)c23)ccc1O [Example 487, N-[(4-Hydroxy-3-methoxyphenyl)methyl]-6-methyl-4-[(1-methylcyclopropyl)amino]furo[2,3-d]pyrimidine-5-carboxamide] |  | 0.01 to 0.1 µM |
| COc1ccc(CNC(=O)c2c(C)oc3ncnc(NC4(C)CC4)c23)cc1Cl [Example 488, N-[(3-Chloro-4-methoxyphenyl)methyl]-6-methyl-4-[(1-methylcyclopropyl)amino]furo[2,3-d]pyrimidine-5-carboxamide] | >8 |  |
| CCN(Cc1ccc(OC)cc1)C(=O)c1c(C)oc2ncnc(NC3(C)CC3)c12 [Example 489, N-ethyl-N-[(4-Methoxyphenyl)methyl]-6-methyl-4-[(1-methylcyclopropyl)amino]furo[2,3-d]pyrimidine-5-carboxamide] |  | 0.01 to 0.1 µM |
| COc1cc(CNC(=O)c2c(C)oc3ncnc(NC4(C)CC4)c23)cc(OC)c1 [Example 495, N-[(3,5-Dimethoxyphenyl)methyl]-6-methyl-4-[(1-methylcyclopropyl)amino]furo[2,3-d]pyrimidine-5-carboxamide] |  | 0.01 to 0.1 µM |
| COc1c(C)cnc(CN(C)C(=O)c2c(C)oc3ncnc(NC4(C)CC4)c23)c1C [Example 498, N-[(4-Methoxy-3,5-dimethylpyridin-2-yl)methyl]-N,6-dimethyl-4-[(1-methylcyclopropyl)amino]furo[2,3-d]pyrimidine-5-carboxamide] |  | 0.01 to 0.1 µM |
| Cc1oc2ncnc(NC3(C)CC3)c2c1C(=O)N1C[C@H]2CC[C@@H](C1)O2 [Example 499, 6-Methyl-N-(1-methylcyclopropyl)-5-[(1R,5S)-8-oxa-3-azabicyclo[3.2.1]octane-3-carbonyl]furo[2,3-d]pyrimidin-4-amine] |  | 0.1 to 1 µM |
| COc1ccc(C(C)NC(=O)c2c(C)oc3ncnc(NC4(C)CC4)c23)cc1C (stereo not shown) [Example 502, N-[1-(4-Methoxy-3-methylphenyl)ethyl]-6-methyl-4-[(1-methylcyclopropyl)amino]furo[2,3-d]pyrimidine-5-carboxamide] | >8 |  |
| C=CCN(Cc1ccc(OC)cc1)C(=O)c1c(C)oc2ncnc(NC3(C)CC3)c12 [Example 508, N-[(4-Methoxyphenyl)methyl]-6-methyl-4-[(1-methylcyclopropyl)amino]-N-(prop-2-en-1-yl)furo[2,3-d]pyrimidine-5-carboxamide] |  | 0.01 to 0.1 µM |
| CCOc1ccc(CNC(=O)c2c(C)oc3ncnc(NC4(C)CC4)c23)cc1OC [Example 509, N-[(4-Ethoxy-3-methoxyphenyl)methyl]-6-methyl-4-[(1-methylcyclopropyl)amino]furo[2,3-d]pyrimidine-5-carboxamide] |  | 0.01 to 0.1 µM |
| COc1ccc(C(C)N(C)C(=O)c2c(C)oc3ncnc(NC4(C)CC4)c23)cc1F (stereo not shown) [Example 510, N-[1-(3-Fluoro-4-methoxyphenyl)ethyl]-N,6-dimethyl-4-[(1-methylcyclopropyl)amino]furo[2,3-d]pyrimidine-5-carboxamide] |  | 0.01 to 0.1 µM |
| Cc1oc2ncnc(NC3(C)CC3)c2c1C(=O)NC(CO)c1ccc(F)cc1 (stereo not shown) [Example 513, N-[1-(4-Fluorophenyl)-2-hydroxyethyl]-6-methyl-4-[(1-methylcyclopropyl)amino]furo[2,3-d]pyrimidine-5-carboxamide] |  | 0.01 to 0.1 µM |
| C#CC(C)(C)NC(=O)c1c(C)oc2ncnc(NC3(C)CC3)c12 [Example 520, 6-Methyl-N-(2-methylbut-3-yn-2-yl)-4-[(1-methylcyclopropyl)amino]furo[2,3-d]pyrimidine-5-carboxamide] |  | 0.01 to 0.1 µM |
| Cc1oc2ncnc(NC3(C)CC3)c2c1C(=O)N1CCN(c2ccc(F)cc2S(C)(=O)=O)CC1 [Example 521] |  | 0.01 to 0.1 µM |
| Cc1oc2ncnc(NC3(C)CC3)c2c1C(=O)N1CCN(c2ccc(S(C)(=O)=O)cc2F)CC1C (stereo not shown) [Example 522, 5-[4-(2-Fluoro-4-methanesulfonylphenyl)-2-methylpiperazine-1-carbonyl]-6-methyl-N-(1-methylcyclopropyl)furo[2,3-d]pyrimidin-4-amine] |  | 0.01 to 0.1 µM |
| COc1ccc(CNC(=O)c2c(C)oc3ncnc(NC4(C)CC4)c23)c(C)c1 [Example 524, N-[(4-Methoxy-2-methylphenyl)methyl]-6-methyl-4-[(1-methylcyclopropyl)amino]furo[2,3-d]pyrimidine-5-carboxamide] |  | 0.01 to 0.1 µM |
| COc1cc(F)ccc1CNC(=O)c1c(C)oc2ncnc(NC3(C)CC3)c12 [Example 525, N-[(4-Fluoro-2-methoxyphenyl)methyl]-6-methyl-4-[(1-methylcyclopropyl)amino]furo[2,3-d]pyrimidine-5-carboxamide] |  | 0.01 to 0.1 µM |

| Structure (SMILES) | PDE1b (pIC50) | IC50 |
| --- | --- | --- |
| COc1ccccc1CN(C)C(=O)c1c(C)oc2ncnc(NC3(C)CC3)c12 [Example 528, N-[(2-Methoxyphenyl)methyl]-N,6-dimethyl-4-[(1-methylcyclopropyl)amino]furo[2,3-d]pyrimidine-5-carboxamide] |  | 0.01 to 0.1 µM |
| Cc1oc2ncnc(NC3(C)CC3)c2c1C(=O)N1CCC(c2ncccc2F)C1 (stereo not shown) [Example 529, 5-[3-(3-Fluoropyridin-2-yl)pyrrolidine-1-carbonyl]-6-methyl-N-(1-methylcyclopropyl)furo[2,3-d]pyrimidin-4-amine] |  | 0.01 to 0.1 µM |
| COc1ccc(C2CCN(C(=O)c3c(C)oc4ncnc(NC5(C)CC5)c34)CC2)nc1F [Example 530, 5-[4-(6-Fluoro-5-methoxypyridin-2-yl)piperidine-1-carbonyl]-6-methyl-N-(1-methylcyclopropyl)furo[2,3-d]pyrimidin-4-amine] |  | 0.01 to 0.1 µM |
| Cc1oc2ncnc(NC3(C)CC3)c2c1C(=O)N1CCC(c2cccc(F)n2)C1 (stereo not shown) [Example 532, 5-[3-(6-Fluoropyridin-2-yl)pyrrolidine-1-carbonyl]-6-methyl-N-(1-methylcyclopropyl)furo[2,3-d]pyrimidin-4-amine] | >8 |  |
| Cc1oc2ncnc(NC3(C)CC3)c2c1C(=O)NCc1cc(C#N)ccc1F [Example 533, N-[(5-Cyano-2-fluorophenyl)methyl]-6-methyl-4-[(1-methylcyclopropyl)amino]furo[2,3-d]pyrimidine-5-carboxamide] | >8 |  |
| Cc1oc2ncnc(NC3(C)CC3)c2c1C(=O)NCc1ccc(Cl)cc1F [Example 534, N-[(4-Chloro-2-fluorophenyl)methyl]-6-methyl-4-[(1-methylcyclopropyl)amino]furo[2,3-d]pyrimidine-5-carboxamide] |  | 0.01 to 0.1 µM |
| Cc1oc2ncnc(NC3(C)CC3)c2c1C(=O)N1CCNC(c2ccc(F)cc2)C1 (stereo not shown) [Example 536, 5-[3-(4-Fluorophenyl)piperazine-1-carbonyl]-6-methyl-N-(1-methylcyclopropyl)furo[2,3-d]pyrimidin-4-amine] | >8 |  |
| COc1ccc(CCNC(=O)c2c(C)oc3ncnc(NC4(C)CC4)c23)cc1OC [Example 545, N-[2-(3,4-Dimethoxyphenyl)ethyl]-6-methyl-4-[(1-methylcyclopropyl)amino]furo[2,3-d]pyrimidine-5-carboxamide] |  | 0.01 to 0.1 µM |
| COc1cccc(F)c1CNC(=O)c1c(C)oc2ncnc(NC3(C)CC3)c12 [Example 547, N-[(2-Fluoro-6-methoxyphenyl)methyl]-6-methyl-4-[(1-methylcyclopropyl)amino]furo[2,3-d]pyrimidine-5-carboxamide] |  | 0.01 to 0.1 µM |
| COc1ccc(CNC(=O)c2c(C)oc3ncnc(NC4(C)CC4)c23)c(Cl)c1 [Example 551, N-[(2-Chloro-4-methoxyphenyl)methyl]-6-methyl-4-[(1-methylcyclopropyl)amino]furo[2,3-d]pyrimidine-5-carboxamide] |  | 0.01 to 0.1 µM |
| CCOc1cccc(F)c1CNC(=O)c1c(C)oc2ncnc(NC3(C)CC3)c12 [Example 552, N-[(2-Ethoxy-6-fluorophenyl)methyl]-6-methyl-4-[(1-methylcyclopropyl)amino]furo[2,3-d]pyrimidine-5-carboxamide] |  | 0.01 to 0.1 µM |
| COc1ccccc1OCCNC(=O)c1c(C)oc2ncnc(NC3(C)CC3)c12 [Example 557, N-[2-(2-Methoxyphenoxy)ethyl]-6-methyl-4-[(1-methylcyclopropyl)amino]furo[2,3-d]pyrimidine-5-carboxamide] | >8 |  |
| COc1ccccc1OCCN(C)C(=O)c1c(C)oc2ncnc(NC3(C)CC3)c12 [Example 558, N-[2-(2-Methoxyphenoxy)ethyl]-N,6-dimethyl-4-[(1-methylcyclopropyl)amino]furo[2,3-d]pyrimidine-5-carboxamide] |  | 0.01 to 0.1 µM |
| Cc1oc2ncnc(NC3(C)CC3)c2c1C(=O)NCCOc1ccccc1F [Example 559, N-[2-(2-Fluorophenoxy)ethyl]-6-methyl-4-[(1-methylcyclopropyl)amino]furo[2,3-d]pyrimidine-5-carboxamide] | >8 |  |
| Cc1oc2ncnc(NC3(C)CC3)c2c1C(=O)NCCCc1nc2cc(F)ccc2[nH]1 [Example 568, N-[3-(5-Fluoro-1H-1,3-benzodiazol-2-yl)propyl]-6-methyl-4-[(1-methylcyclopropyl)amino]furo[2,3-d]pyrimidine-5-carboxamide] |  | 0.01 to 0.1 µM |
| Cc1oc2ncnc(NC3(C)CC3)c2c1C(=O)N(C)Cc1cc2cc(F)ccc2[nH]1 [Example 569, N-[(5-Fluoro-1H-indol-2-yl)methyl]-N,6-dimethyl-4-[(1-methylcyclopropyl)amino]furo[2,3-d]pyrimidine-5-carboxamide] |  | 0.01 to 0.1 µM |
| COc1ccc2[nH]c(CNC(=O)c3c(C)oc4ncnc(NC5(C)CC5)c34)cc2c1 [Example 570, N-[(5-Methoxy-1H-indol-2-yl)methyl]-6-methyl-4-[(1-methylcyclopropyl)amino]furo[2,3-d]pyrimidine-5-carboxamide] |  | 0.01 to 0.1 µM |
